# Measurements: PMC6889161, “Inhibitory characteristics of flavonol-3-O-glycosides from Polygonum aviculare L. (common knotgrass) against porcine pancreatic lipase” (Scientific Reports, 2019)
# What was measured:
# [1] = molecular target: T1, Lipase from porcine pancreas type II (pancreatic lipase) (Sus scrofa, UniProt P00591); test: Pancreatic lipase inhibition assay (4-MUO substrate, fluorescence); format: biochemical; details: for Inhibition mode (type of inhibition): Lineweaver-Burk plots at 50 μM and 100 μM of compound; for IC50: from RRA of PL at various concentrations, nonlinear regression
# T1 construct: purchased Sigma-Aldrich Co. (St. Louis, MO, USA); host or cells: porcine pancreas (tissue preparation)
# T1 sequence (P00591 1-450): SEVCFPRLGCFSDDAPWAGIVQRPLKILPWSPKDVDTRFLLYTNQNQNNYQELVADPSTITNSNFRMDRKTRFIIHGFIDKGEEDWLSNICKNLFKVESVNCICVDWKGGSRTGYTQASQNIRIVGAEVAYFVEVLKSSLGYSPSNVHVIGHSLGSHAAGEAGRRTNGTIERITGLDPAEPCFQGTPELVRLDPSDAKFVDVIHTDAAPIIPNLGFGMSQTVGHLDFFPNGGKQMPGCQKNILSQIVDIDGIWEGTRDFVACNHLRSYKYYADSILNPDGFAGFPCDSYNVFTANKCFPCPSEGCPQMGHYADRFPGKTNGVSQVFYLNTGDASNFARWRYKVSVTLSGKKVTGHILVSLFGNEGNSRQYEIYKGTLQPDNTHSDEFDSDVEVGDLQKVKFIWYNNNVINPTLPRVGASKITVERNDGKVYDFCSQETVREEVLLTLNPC
# Procedure: The PL assay using 4-MUO as a substrate was conducted as described previously with slight modification[28],[29]. Lipase from porcine pancreas type II (i.e., pancreatic lipase) was dissolved in 50 mM Tris-HCl buffer (pH 8.0) to give 10 mg/mL, and centrifuged at 5,000 g for 10 min to remove insoluble material before the enzyme assay. Then, 50 µL of 0.5 mM 4-MUO solution dissolved in the above buffer and 100 µL of the sample solution dissolved in methanol (i.e., the inhibitor solution) were mixed in 96-well microplate to form the reaction system. The enzymatic hydrolysis was initiated by adding 50 µL of the PL solution to the reaction system (final 250 units/mL) at 37 °C. […] The inhibitory activities against PL were calculated for comparison with each other, as follows:1 Inhibition(%)=A0−AS/A0×100 where A0 is the relative fluorescence unit after the reaction for 30 min in the absence of sample (i.e., only methanol) and AS is the fluorescence unit in the presence of sample.
# To determine the IC50, the RRA of PL in the presence of the sample at various concentrations was evaluated. The reaction of PL was measured by the same procedure described above, and the RRA was calculated from the following equation:2 Relativeresidualactivity(%)=vS/v0×100 where ν0 is the initial velocity of the reaction in the absence of sample (i.e., only methanol) and νS is the initial velocity in the presence of sample. […] The type of inhibition was elucidated by evaluating the changes of kinetic parameters from Lineweaver-Burk plot as follows:3 1/v=Km/Vmax1/[S]+1/Vmax where [S] is the concentration of substrate, v is the initial velocity of the reaction, Vmax is the maximum initial velocity when substrate approaches infinite concentration, and Km is the dissociation constant of the enzyme-substrate complex (i.e., the Michaelis constant).
# pancreatic lipase (PL) = test system: T2, pancreatic lipase (PL); test: Fluorescence emission spectroscopy (tryptophan fluorescence quenching of PL); format: binding, porcine; details: for kq (bimolecular quenching constant): calculated from KSV with τ0 = 1.59 ns; for KSV (Stern-Volmer quenching constant): excitation 295 nm, 40 µM PL; for KA (binding constant) / n (number of binding sites): double-logarithmic equation
# T2 construct: purchased Sigma-Aldrich Co. (St. Louis, MO, USA); host or cells: porcine pancreas (tissue preparation)
# Procedure: The fluorescence spectra of PL in the presence of the sample were measured on a SpectraMax® i3 Multi-Mode Microplate Reader (Molecular Devices) as described previously with slight modification. In brief, aliquots of the sample solution at various concentrations (0−100 µM) were added into 40 µM of PL solution. The mixture was incubated for 30 min at 25 °C and 37 °C, and the fluorescence emission spectra were measured in the range of 315−400 nm upon excitation at 295 nm. The excitation and emission slit widths were set at 9 and 15 nm, respectively. The fluorescence data were analyzed by fitting to the Stern-Volmer equation for analysis of fluorescence quenching[23]:4 F0/F=1+KSV[Q]=1+kqτ0[Q] where F0 and F is the fluorescence intensity in the absence and presence of quencher, respectively, kq is the bimolecular quenching constant, τ0 is the lifetime of fluorescence in the absence of quencher, KSV is the Stern-Volmer quenching constant, and [Q] is the concentration of quencher. KSV was obtained from the slope of a plot of F0/F versus [Q] by linear regression curve fitting, and kq was calculated by KSV, where τ0 is equal to 1.59 ns[31]. The binding constant (KA) and number of binding sites (n) were obtained according to a double-logarithmic equation[32]:5 logF0−F/F=logKA+nlog[Q]
Compound,Inhibition mode (type of inhibition) [1],kq (bimolecular quenching constant) (pancreatic lipase (PL); 25 °C),KSV (Stern-Volmer quenching constant) (pancreatic lipase (PL); 25 °C),kq (bimolecular quenching constant) (pancreatic lipase (PL); 37 °C),KA (binding constant) (pancreatic lipase (PL); 37 °C),n (number of binding sites) (pancreatic lipase (PL); 37 °C),KSV (Stern-Volmer quenching constant) (pancreatic lipase (PL); 37 °C),KA (binding constant) (pancreatic lipase (PL)) [M⁻¹],IC50 [1] [µM]
myricetin-3-O-α-L-rhamnopyranoside [Myricitrin],non-competitive or mixed-type inhibition,7.48 10^12 M^−1s^−1,1.19 10^4 M^−1,7.74 10^12 M^−1s^−1,1.45 10^4 M^−1,1.0228,1.23 10^4 M^−1,14500,
"O=c1c(O[C@@H]2O[C@@H](CO)[C@H](O)[C@H]2O)c(-c2ccc(O)c(O)c2)oc2cc(O)cc(O)c12 [Avicularin, quercetin-3-O-α-L-arabinofuranoside]",non-competitive or mixed-type inhibition,3.52 10^12 M^−1s^−1,0.56 10^4 M^−1,3.71 10^12 M^−1s^−1,0.94 10^4 M^−1,1.1119,0.59 10^4 M^−1,9400,142
O=c1c(O)c(-c2ccc(O)c(O)c2)oc2cc(O)cc(O)c12 [Quercetin],competitive inhibition,6.29 10^12 M^−1s^−1,1.00 10^4 M^−1,5.91 10^12 M^−1s^−1,3.57 10^4 M^−1,1.1471,0.94 10^4 M^−1,35700,
"C[C@@H]1O[C@@H](Oc2c(-c3ccc(O)c(O)c3)oc3cc(O)cc(O)c3c2=O)[C@H](O)[C@H](O)[C@H]1O [Quercitrin, quercetin-3-O-α-L-rhamnopyranoside]",non-competitive or mixed-type inhibition,8.05 10^12 M^−1s^−1,1.28 10^4 M^−1,8.30 10^12 M^−1s^−1,1.00 10^4 M^−1,0.9760,1.32 10^4 M^−1,10000,101
O=c1c(O)c(-c2ccc(O)cc2)oc2cc(O)cc(O)c12 [Kaempferol],competitive inhibition,7.67 10^12 M^−1s^−1,1.22 10^4 M^−1,6.48 10^12 M^−1s^−1,2.07 10^4 M^−1,1.1103,1.03 10^4 M^−1,20700,79.4
